Target: Human Factor D (Homo sapiens (Human), UniProt P00746)
Test: Human Factor D assay
Assay type: biochemical
Conditions: Human Factor D 80 nM, substrate Z-L-Lys-SBzl, A405; read-out: IC50 (Stars)
Description: The assay of Example 3 was used to determine the IC50's of the compounds. Other standard factor D inhibition assays are also available.
Human Factor D (purified from human serum, Complement Technology, Inc.) at 80 nM final concentration is incubated with test compound at various concentrations for 5 min at room temperature in 50 mM Tris, 1M NaCl, pH 7.5. A synthetic substrate Z-L-Lys-SBzI and DTNB (Ellman's reagent) are added to final concentrations of 100 μM each. Absorbance at 405 nm (A405) is recorded at 30 second intervals for 30 min using a microplate spectrophotometer. IC50 values are calculated by nonlinear regression of complement Factor D reaction rates as a function of test compound concentration.

Human Factor D, sequence (P00746 26-253): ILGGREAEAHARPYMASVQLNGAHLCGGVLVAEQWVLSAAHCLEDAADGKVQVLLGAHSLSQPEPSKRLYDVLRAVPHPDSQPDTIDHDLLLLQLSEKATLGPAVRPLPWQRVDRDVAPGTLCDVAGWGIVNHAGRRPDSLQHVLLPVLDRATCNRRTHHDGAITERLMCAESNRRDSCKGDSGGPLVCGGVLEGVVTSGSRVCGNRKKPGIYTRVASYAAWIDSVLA

SMILES | IC50 [nM]
CC(=O)c1nn2c3c(cc(-c4cnc(C)nc4)cc13)CCCCCCCCCc1ccc(Br)nc1NC(=O)[C@H](C)N(C)C(=O)C2 [Compound 38, (S)-13-acetyl-3-bromo-7,8-dimethyl-15-(2-methylpyrimidin-5-yl)-5,7,8,17,18,19,20,21,22,23,24,25-dodecahydro-6H-pyrido[2′,3′:8,9][1,4,7]triazacycloicosino[19,20,1-hi]indazole-6,9(10H)-dione] | > 10000
CC(=O)c1nn2c3c(cc(NCC4CCCCC4)cc13)CCCCCCC(=O)NC[C@@]13C[C@@H](C(=O)Nc4nc(C(F)(F)F)ccc4C)N(C(=O)C2)[C@@H]1C3 [Compound 39, (4^1R,4^3S,4^5R)-1^3-acetyl-1^5-((cyclohexylmethyl)amino)-N-(3-methyl-6-(trifluoromethyl)pyridin-2-yl)-3,7-dioxo-1^1H-4^2,6-diaza-1(1,7)-indazola-4(2,5)-bicyclo[3.1.0]hexanacyclotridecaphane-4^3-carboxamide] | < 1000
CC(=O)c1nn2c3c(cc(-c4cnc(C)nc4)cc13)CCCCCCCCO[C@@H]1CCN(C(=O)C2)[C@@H]1C(=O)NCc1cccc(Cl)c1F [Compound 40, (4^2S,4^3R)-1^3-acetyl-N-(3-chloro-2-fluorobenzyl)-1^5-(2-methylpyrimidin-5-yl)-3-oxo-1^1H-5-oxa-1(1,7)-indazola-4(1,3)-pyrrolidinacyclotridecaphane-4^2-carboxamide] | < 1000
CC(=O)c1nn2c3c(nc(C)cc13)C/C=C/CCCCCC(=O)NCc1ccc(Br)nc1NC(=O)[C@@H]1C[C@@]3(C)C[C@H]3N1C(=O)C2 [Compound 45, (20aS,21aR,22aR,E)-26-acetyl-17-bromo-2,21a-dimethyl-8,9,10,11,13,14,20a,21,21a,22,22a,24-dodecahydro-3,13,18,19,22b,24a,25-heptaazabenzo[15,16]cyclopropa[3′,4′]cyclopenta[1′,2′:19, 20]cyclodocosa[1,2,3-cd]indene-12,20,23(4H,7H,19H)-trione] | < 1000
CC(=O)c1nn2c3c(cccc13)CC/C=C/CC(=O)NC[C@@]13C[C@@H](C(=O)Nc4nc(Br)ccc4C)N(C(=O)C2)[C@@H]1C3 [Compound 46, (41R,43S,45R,E)-13-acetyl-N-(6-bromo-3-methylpyridin-2-yl)-3,7-dioxo-11H-42,6-diaza-l(1,7)-indazola-4(2,5)-bicyclo[3.1.0]hexanacyclododecaphan-9-ene-43-carboxamide] | < 1000
CC(=O)c1nn2c3c(cccc13)CC/C=C/CCC(=O)NC[C@@]13C[C@@H](C(=O)Nc4nc(Br)ccc4C)N(C(=O)C2)[C@@H]1C3 [Compound 47, (41R,43S,45R,E)-13-acetyl-N-(6-bromo-3-methylpyridin-2-yl)-3,7-dioxo-11H-42,6-diaza-1(1,7)-indazola-4(2,5)-bicyclo[3.1.0]hexanacyclotridecaphan-10-ene-43-carboxamide] | < 1000
CC(=O)c1nn(CC(=O)N2[C@H]3C[C@]4(C[C@@H]24)Cn2cc(nn2)COCc2ccc(Br)nc2NC3=O)c2cnccc12 [Compound 48, (31R,33S,35R,Z)-32-(2-(3-acetyl-1H-pyrazolo[3,4-c]pyridin-1-yl)acetyl)-66-bromo-11H-8-oxa-32,5-diaza-6(2,3)-pyridina-1(1,4)-triazola-3(5,3)-bicyclo[3.1,0]hexanacyclononaphan-4-one] | < 1000
CC(=O)c1nn2c3c(cc(-c4cnc(C)nc4)cc13)CCCCCCCCc1ccc(Br)nc1NC(=O)[C@H](C)N(C)C(=O)C2 [Compound 51, (S)-2-acetyl-16-bromo-20,21-dimethyl-4-(2-methylpyrimidin-5-yl)-6,7,8,9,10,11,12,13,20,21 - decahydropyrido[2′,3′:8,9][1,4,7]triazacyclononadecino [18,19,1-hi]indazole-19,22(18H,23H)-dione] | > 10000
CC(=O)c1nn2c3c(cc(NCC4CCCCC4)cc13)CCCCCCC(=O)NCC13CC(C(=O)Nc4nc(C(F)(F)F)ccc4C)N(C(=O)C2)C1C3 [Compound 52, (41R,43S,45R)-13-acetyl-15-((cyclohexylmethyl)amino)-N-(3-methyl-6-(trifluoromethyl)pyridin-2-yl)-3,7-dioxo-11H-42,6-diaza-1(1,7)-indazola-4(2,5)-bicyclo[3.1.0]hexanacyclotridecaphane-43-carboxamide] | < 1000
CC(=O)c1nn2c3c(cc(-c4cnc(C)nc4)cc13)CCCCCCCCCCCO[C@@H]1CCN(C(=O)C2)[C@@H]1C(=O)NCc1cccc(Cl)c1F [Compound 54, (42S,43R)-13-acetyl-N-(3-chloro-2-fluorobenzyl)-15-(2-methylpyrimidin-5-yl)-3-oxo-11H-5-oxa-1(1,7)-indazola-4(1,3)-pyrrolidinacyclohexadecaphane-42-carboxamide] | < 1000
CC(=O)c1nn2c3c(cc(NC4CCCC4)cc13)CCCCCCC(=O)NCC13CC(C(=O)Nc4nc(C(F)(F)F)ccc4C)N(C(=O)C2)C1C3 [Compound 55, (41R,43S,45R)-13-acetyl-15-(cyclopentylamino)-N-(3-methyl-6-(trifluoromethyl)pyridin-2-yl)-3,7-dioxo-11H-42,6-diaza-1(1,7)-indazola-4(2,5)-bicyclo[3.1.0]hexanacyclotridecaphane-43-carboxamide] | < 1000
CC(=O)c1nn2c3c(cc(-c4cnc(C)nc4)cc13)CCCCCCCCCC[C@@H](C(=O)Nc1nc(Br)ccc1C)N(C)C(=O)C2 [Compound 56, (S)-2-acetyl-N-(6-bromo-3-methylpyridin-2-yl)-17-methyl-4-(2-methylpyrimidin-5-yl)-18-oxo-6,7,8,9,10,11,12,13,14,15,16,17,18,19-tetradecahydro-[1,4]diazacycloheptadecino[16,17,1-hi]indazole-16-carboxamide] | > 10000
CC(=O)c1nn2c3c(cc(NC(=O)C4CC4)cc13)CCCCCCC(=O)NCC13CC(C(=O)Nc4nc(C(F)(F)F)ccc4C)N(C(=O)C2)C1C3 [Compound 57, (41R,43S,45R)-13-acetyl-15-(cyclopropanecarboxamido)-N-(3-methyl-6-(trifluoromethyl)pyridin-2-yl)-3,7-dioxo-11H-42,6-diaza-1(1,7)-indazola-4(2,5)-bicyclo[3.1.0]hexanacyclotridecaphane-43-carboxamide] | < 1000
CC(=O)c1nn2c3c(cc(-c4cnc(C)nc4)cc13)NCCCCCC(=O)NCC13CC(C(=O)Nc4nc(C(F)(F)F)ccc4C)N(C(=O)C2)C1C3 [Compound 58, (41R,43S,45R)-13-acetyl-N-(3-methyl-6-(trifluoromethyl)pyridin-2-yl)-15-(2-methylpyrimidin-5-yl)-3,7-dioxo-11H-42,6,13-triaza-1(1,7)-indazola-4(2,5)-bicyclo[3.1.0]hexanacyclotridecaphane-43-carboxamide] | < 1000
CC(=O)c1nn2c3c(cc(-c4cnc(C)nc4)cc13)CCCCCC(C)(C)CNC[C@@]13C[C@@H](C(=O)Nc4nc(C(F)(F)F)ccc4C)N(C(=O)C2)[C@@H]1C3 [Compound 59, (41R,43S,45R)-13-acetyl-8,8-dimethyl-N-(3-methyl-6-(trifluoromethyl)pyridin-2-yl)-15-(2-methylpyrimidin-5-yl)-3-oxo-11H-42,6-diaza-1(1,7)-indazola-4(2,5)-bicyclo[3.1.0]hexanacyclotridecaphane-43-carboxamide] | < 1000

Reference: patent US11814391B2, “Macrocyclic compounds for the treatment of medical disorders” (Achillion Pharmaceuticals, Inc., priority 2018, dated 2023)
